According to US11492359B2, “Near-infrared nerve-sparing fluorophores” (OREGON HEALTH & SCIENCE UNIVERSITY, priority 2018, dated 2022):

Test: UV-Vis absorption and fluorescence spectroscopy of the Oxazine library
Assay type: physicochemical
Conditions: for Extinction coefficient: Beer's Law plots; for Quantum yield: relative, references Oxazine 1, Oxazine 170, Rhodamine 101
Procedure: All reagents were purchased from Sigma Aldrich, Fisher Scientific, TCI, or Ark Pharm. Unless otherwise indicated, all commercially available starting materials were used directly without further purification. Analytical thin layer chromatography (TLC) was performed on Millipore ready-to-use plates with silica gel 60 (F254, 32-63 μm). Flash chromatography was performed on Sorbent Technologies silica gel for column chromatography or on a Biotage Isolera Flash System using SNAP Ultra cartridges. High-resolution mass spectra (HRMS) were measured on a ThermoElectron LTQ-Orbitrap high resolution mass spectrometer with a dedicated Accela HPLC system, or an Agilent 6244 time-of-flight LCMS with diode array detector VL+. LCMS and Purity Characterization Mass-to-charge ratio and purity of the Oxazine compounds were characterized on an Agilent 6244 time-of-flight tandem liquid chromatography mass spectroscopy (LCMS) with diode array detector VL+. Sample (10 μL) was injected into a C18 column (Poroshell 120, 4.6×50 mm, 2.7 micron), and eluted with a solvent system of A (H2O, 0.1% FA) and B (MeCN, 01.% FA) at 0.4 mL/min, from A/B=90/10 to 5/95 over 10 min, maintained at A/B=5/95 for additional 5 min. Ions were detected in positive ion mode by setting the capillary voltage at 4 kV and gas temperature at 350° C. Purity was calculated through area under the curve analysis of the absorbance at 254 nm. UV-Vis Absorption and Fluorescence Spectroscopy. UV-Vis spectra were collected with a Cary 50 UV-Vis spectrophotometer at room temperature, using a 1-cm quartz cuvette. Fluorescence spectra were collected on a Cary Eclipse fluorescence spectrophotometer (Agilent Technologies). All absorbance spectra were reference corrected. Extinction coefficient was calculated from Beer's Law plots of absorbance versus concentration. Fluorescence spectra were corrected for the wavelength dependent response of the R928 photomultiplier tube using a manufacturer generated correction file. Relative quantum yields are reported as the average of multiple measurements using multiple references, including Oxazine 1, Oxazine 170, and Rhodamine 101. Physicochemical Property Calculation. Physicochemical partition coefficients (Log D) values at pH 7.4, number of hydrogen bond donors and acceptors, polar surface area, and the number of rotatable bonds were calculated using Marvin and JChem calculator plugins (ChemAxon, Budapest, Hungary). Nerve-Specificity Screening using Direct/Topical Administration Each compound was screened for its tissue-specificity using a previously published direct/topical administration strategy in murine brachial plexus and sciatic nerves.^1 Each compound from the Oxazine library was formulated in the previously utilized co-solvent formulation (10% DMSO, 5% Kolliphor, 65% serum and 20% phosphate buffered saline) at 125 μM. 100 μL of the formulated Oxazine were incubated on the exposed brachial plexus or sciatic nerve for 5 minutes. The fluorophore containing solution was removed and the area was irrigated with saline 18 times to remove any unbound fluorophore. Co-registered fluorescence and color images were collected of each stained area 30 minutes after Oxazine direct/topical administration using a custom built macroscopic imaging system with 620/60 nm excitation and 700/75 nm bandpass emission filters. Custom written MatLab code was used to analyze the tissue specific fluorescence where regions of interest were selected on the nerve, muscle and adipose tissue using the white light images. These regions of interest were then analyzed on the co-registered matched fluorescence images permitting assessment of the nerve to muscle and nerve to adipose ratios in blinded manner. […]

Compound | Max Abs [nm] | Max Em [nm] | Max Ex [nm] | Extinction coefficient [M⁻¹ cm⁻¹] | Quantum yield [%]
c1c2c(cc3c1Oc1cc4c(cc1=N3)OCCN=4)OCCN2 [LGW03-65, 3,8,9,10-tetrahydro-2H-bis([1,4]oxazino)[2,3-b:3′,2′-i]phenoxazin-4-ium] | 629 | 643 | 630 | 28067 | 27.39
CC[N+](CC)=c1ccc2nc3cc4c(cc3oc-2c1)NCC4 [LGW03-88, N-(2,3-dihydropyrrolo[3,2-b]phenoxazin-8(1H)-ylidene)-N-ethylethanaminium] | 631 | 659 | 640 | 59737 | 6.22
CCCNc1cc2oc3c/c(=N/CC)c(C)cc-3nc2cc1C [LGW04-32, (Z)—N-(2,8-dimethyl-7-(propylamino)-3H-phenoxazin-3-ylidene)ethanaminium] | 620 | 638 | 620 | 61084 | 39.77
CC/N=c1/cc2oc3cc(N(C)C)ccc3nc-2cc1C [LGW04-36, (Z)—N-(7-(dimethylamino)-2-methyl-3H-phenoxazin-3-ylidene)ethanaminium] | 636 | 657 | 635 | 60819 | 8.15
CC/N=c1/cc2oc3cc(NC)c(C)cc3nc-2cc1C [LGW04-81, (Z)—N-(2,8-dimethyl-7-(methylamino)-3H-phenoxazin-3-ylidene)ethanaminium] | 616 | 634 | 615 | 52291 | 39.47
c1cc2nc3ccc(=[N+]4CCCCC4)cc-3oc2cc1N1CCCCC1 [LGW04-91, 1-(7-(piperidin-1-yl)-3H-phenoxazin-3-ylidene)piperidin-1-ium] | 663 | 689 | 665 | 85597 | 2.77
CCNc1cc2oc3cc(=[N+](CC)CC)ccc-3nc2cc1Cl [LGW05-33, N-(8-chloro-7-(ethylamino)-3H-phenoxazin-3-ylidene)-N-ethylethanaminium] | 638 | 660 | 640 | 36166 | 3.84
CC/N=c1/cc2oc3cc(NCC)c(Cl)cc3nc-2cc1Cl [LGW05-39, (Z)—N-(2,8-dichloro-7-(ethylamino)-3H-phenoxazin-3-ylidene)ethanaminium] | 620 | 638 | 620 | 18223 | 34.29
CC/N=c1/cc2oc3cc(NCC)c(Cl)cc3nc-2cc1C [LGW05-42, (Z)—N-(8-chloro-7-(ethylamino)-2-methyl-3H-phenoxazin-3-ylidene)ethanaminium] | 612 | 636 | 615 | 41527 | 37.22
CCN1CCOc2cc3nc4ccc(=[N+](CC)CC)cc-4oc3cc21 [LGW05-65, N-ethyl-N-(4-ethyl-3,4-dihydro-[1,4]oxazino[2,3-b]phenoxazin-8(2H)-ylidene)ethanaminium] | 661 | 684 | 665 | 61535 | 7.85
CCN1c2cc3c(cc2C(C)=CC1(C)C)N=c1cc2c(cc1O3)=[N+](CC)C(C)(C)C=C2C [LGW05-66, 1,11-diethyl-2,2,4,8,10,10-hexamethyl-10,11-dihydro-2H-dipyrido[3,2-b:2′,3′-i]phenoxazin-1-ium] | 701 | 718 | 710 | 34002 | 36.68
